We go through 1 substance from patent US20240425589A1, “CYTOTOXICITY-INDUCING THERAPEUTIC AGENT FOR USE IN TREATMENT OF CANCER” (CHUGAI SEIYAKU KABUSHIKI KAISHA, priority 2021, published 2024).

Test [1] deals with CLDN6 expression in NIH:OVCAR-3, COV413A, COV413B, COV362. The experiment in a line: CLDN6 expression by FACS after TGF-β1. To be noted: TGF-β1 10 ng/mL, four days, vs untreated. In kind it is cell-based, human. How it is done: Next, analyses were performed to determine whether TGF-β1 induces CLDN6 expression in other ovarian cancer cell lines. In addition to NIH:OVCAR-3 cells, COV413A cells (ECACC), COV413B (ECACC), and COV362 (ECACC) were seeded on culture plates, and TGF-β1 was added at 10 ng/mL. Four days later, cells were recovered, and CLDN6 expression was analyzed by FACS analysis.
In the FACS analysis, cells were detached from the culturing flask to produce a cell suspension, these cells were stained using an anti-CLDN6 antibody (CS4135 mIgG1: the heavy-chain and light-chain amino acid sequences are shown in SEQ ID NOs: 210 and 211, respectively, and the heavy-chain and light-chain nucleotide sequences are shown in SEQ ID NOs: 212 and 213, respectively) labeled with Alexa Flour 488 (Alexa Fluor 488 antibody labeling kit, ThermoFisher Scientific), and the amount of CLDN6 expression was analyzed using a flow cytometer (FACSlyric, BD Biosciences). The CS4135 mIgG1 antibody is a chimeric antibody produced by linking the Fc region of a mouse IgG1 to the Fab of the CS4135 antibody.

For test [2], the system named is CLDN6 expression in NIH:OVCAR-3. The experiment in a line: CLDN6 expression by quantitative PCR after TGF-β1. In kind it is cell-based, human. As to conditions: TGF-β1 10 ng/ml, 5 days, vs untreated. How it is done:
Therefore, it was speculated that TGF-β1 induced by treatment with an anticancer agent may affect CLDN6 expression. Accordingly, analyzes were performed to determine whether […] induces CLDN6 expression in the human ovarian cancer cell line (NIH:OVCAR-3, ATCC). Regarding the NIH:OVCAR-3 cells seeded on culture plates, RNAs were purified (RNeasy Mini Kit, QIAGEN) from untreated cells or from cells collected 5 days after addition of TGF-β1 (R & D Systems, 10 ng/ml), and then cDNA synthesis (Superscript IV VILO Master Mix, ThermoFisher) was performed. By using the cDNAs as templates, real-time PCR was performed using CLDN6-specific primers (Power SYBR (registered trademark) Green Master Mix, ThermoFisher) to analyze CLDN6 expression (QuantStudio 12K Flex Real-Time PCR System, ThermoFisher).
The same primers as those in the above-mentioned Example 21.1 were used as the primers for human CLDN6 and for the primers for human GAPDH used as the internal control.

Consider “TGF-β1: TGF-β1 (R & D Systems) added to cells at 10 ng/ml”, for which the results for the CLDN6 expression result in test [1] and in test [2] were “increased CLDN6 expression” and “Increase in CLDN6 expression was observed”, respectively.
